Among the data in PubChem BioAssay AID1117354 (Cheminformatics & Chemogenomics Research Group (CCRG), …, 2015) are inhibition values, retold here.

In the test the target is Tyrosine-protein kinase JAK2 (Homo sapiens) (UniProt O60674). Put plainly: NCGC Pharmaceutical Collection primary HTS, Janus kinase 2 (Homo sapiens) inhibitors, biochemical, LANCE Ultra TR-FRET (AID 1117354). To be noted: LANCE Ultra TR-FRET kinase assay, at 20 µM (top of the series).

The source made the active and inactive calls. How the calls were made is not given here.

Broadly, the inhibition is the drop in the measured response relative to a control, in per cent.

Sequence of Tyrosine-protein kinase JAK2 (Homo sapiens) (O60674 whole entry, looked up): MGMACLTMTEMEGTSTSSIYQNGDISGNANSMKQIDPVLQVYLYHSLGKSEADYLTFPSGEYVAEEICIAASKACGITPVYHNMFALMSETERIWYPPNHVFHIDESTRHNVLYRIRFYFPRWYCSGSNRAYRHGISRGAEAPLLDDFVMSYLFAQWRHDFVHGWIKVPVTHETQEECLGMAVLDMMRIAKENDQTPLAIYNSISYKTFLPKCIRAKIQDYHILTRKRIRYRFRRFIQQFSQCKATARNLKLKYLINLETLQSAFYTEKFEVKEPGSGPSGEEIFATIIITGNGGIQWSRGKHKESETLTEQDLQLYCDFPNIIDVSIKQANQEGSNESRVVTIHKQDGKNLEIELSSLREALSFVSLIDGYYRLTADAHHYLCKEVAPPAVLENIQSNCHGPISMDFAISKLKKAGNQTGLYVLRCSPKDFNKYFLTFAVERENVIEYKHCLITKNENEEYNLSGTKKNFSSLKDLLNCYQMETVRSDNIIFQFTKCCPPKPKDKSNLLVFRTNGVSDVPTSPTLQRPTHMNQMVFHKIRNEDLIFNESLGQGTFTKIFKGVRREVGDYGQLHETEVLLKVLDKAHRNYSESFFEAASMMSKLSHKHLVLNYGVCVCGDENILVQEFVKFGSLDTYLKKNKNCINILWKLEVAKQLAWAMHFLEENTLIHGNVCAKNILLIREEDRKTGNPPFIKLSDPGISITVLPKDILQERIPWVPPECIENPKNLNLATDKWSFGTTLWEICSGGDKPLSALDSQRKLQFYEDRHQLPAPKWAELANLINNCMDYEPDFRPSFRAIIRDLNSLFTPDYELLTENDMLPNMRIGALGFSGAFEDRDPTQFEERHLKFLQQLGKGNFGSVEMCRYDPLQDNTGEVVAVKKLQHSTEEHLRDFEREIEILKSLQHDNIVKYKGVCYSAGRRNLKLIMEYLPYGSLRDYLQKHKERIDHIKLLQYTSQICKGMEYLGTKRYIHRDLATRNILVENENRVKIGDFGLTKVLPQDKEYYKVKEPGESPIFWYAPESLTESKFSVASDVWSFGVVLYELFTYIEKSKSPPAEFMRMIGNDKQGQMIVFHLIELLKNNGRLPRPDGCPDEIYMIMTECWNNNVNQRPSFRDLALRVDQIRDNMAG

As to `O=C(Nc1ccc([N+](=O)[O-])cc1Cl)c1cc(Cl)ccc1O`, the inhibition is 16.5% (inactive).
As for `COc1cc2nc(N3CCN(C(=O)c4ccco4)CC3)nc(N)c2cc1OC`, the inhibition was -17.8% (inactive).
With `COc1ccc(-c2nc3ccc(C4=NNC(=O)CC4C)cc3[nH]2)cc1` (configuration not stated), the inhibition is -0.61% (inactive).
On to `Cc1ccc(Nc2nccc(N(C)c3ccc4c(C)n(C)nc4c3)n2)cc1S(N)(=O)=O`, for which the inhibition is 81.8%.
In the case of `COc1cc2c(c(OC)c1OC)-c1ccc(OC)c(=O)cc1[C@@H](NC(C)=O)CC2`, the inhibition is -10.4% (inactive).
For `CCCCc1oc2ccccc2c1C(=O)c1cc(I)c(OCCN(CC)CC)c(I)c1`, the inhibition is 16.2% (inactive).
Regarding `Oc1c(Cl)cc(Cl)cc1Sc1cc(Cl)cc(Cl)c1O`, the inhibition is -0.83% (inactive).
Regarding `COC(=O)Nc1nc2ccc(Sc3ccccc3)cc2[nH]1`, the inhibition is -7.45% (inactive).
As for `CNC(=O)c1ccccc1Sc1ccc2c(/C=C/c3ccccn3)n[nH]c2c1`, the figure is 94.5%; as for `Cc1nc(Nc2ncc(C(=O)Nc3c(C)cccc3Cl)s2)cc(N2CCN(CCO)CC2)n1`, 98.4%; as for `S=c1nc[nH]c2nc[nH]c12`, 1.43% (inactive).
As for `Cc1cc(C2CCCCC2)n(O)c(=O)c1`, the figure is -9.21% (inactive); as for `COC(=O)Nc1nc2ccc(C(=O)c3ccccc3)cc2[nH]1`, 25.8% (inactive).
Take `CCCCCCCCCCCCCCCCCCNC(=O)OC1CCN(C(=O)OC[C@H](COC(=O)N(Cc2cccc[n+]2CC)C(=O)c2ccccc2OC)OC)CC1`: the inhibition was -2.67% (inactive).
In the case of `CCC1=C[C@@H]2CN(C1)Cc1c([nH]c3ccccc13)[C@@](C(=O)OC)(c1cc3c(cc1OC)N(C)[C@H]1[C@@](O)(C(=O)OC)[C@H](OC(C)=O)[C@]4(CC)C=CCN5CC[C@]31[C@@H]54)C2`, the inhibition is 1.76% (inactive).
As for `O=[N+]([O-])c1ccc(O)c2ncccc12`, the inhibition is 1.93% (inactive).
With `CCC(C)n1ncn(-c2ccc(N3CCN(c4ccc(OC[C@H]5CO[C@](Cn6cncn6)(c6ccc(Cl)cc6Cl)O5)cc4)CC3)cc2)c1=O` (some centres not stated), the inhibition was 10.5% (inactive).
As for `O=C(NOCC1CC1)c1ccc(F)c(F)c1Nc1ccc(I)cc1Cl`, the figure is 13.2% (inactive); as for `CC(C)(C)C(=O)OCOP(=O)(COCCn1cnc2c(N)ncnc21)OCOC(=O)C(C)(C)C`, -9.81% (inactive).
`Cc1nc2ccc(CN(C)c3ccc(C(=O)N[C@@H](CCC(=O)O)C(=O)O)s3)cc2c(=O)[nH]1`: the inhibition was 14.6% (inactive).
On to `CNC(=O)c1cc(Oc2ccc(NC(=O)Nc3ccc(Cl)c(C(F)(F)F)c3)cc2)ccn1`, for which the inhibition was 63.2%.
With `COC(=O)Nc1nc2ccc(C(=O)C3CC3)cc2[nH]1`, the inhibition is 21.4% (inactive).
As for `CCCCCCCCCCCCCC[N+](C)(C)C`, the figure is -1.09% (inactive).
In the case of `CN1CC[C@H](c2c(O)cc(O)c3c(=O)cc(-c4ccccc4Cl)oc23)[C@H](O)C1`, the inhibition is 67.4%.
Take `C=CC(=O)Nc1cc2c(Nc3ccc(F)c(Cl)c3)ncnc2cc1OCCCN1CCOCC1`: the inhibition is 68.2%.
Take `[O-][n+]1ccccc1SSc1cccc[n+]1[O-]`: the inhibition was -17.3% (inactive).
`O=C(CCl)c1ccc(Cl)cc1Cl`: the inhibition was -17.1% (inactive).
